{
  "source": "patent US11083735B2",
  "about": "“Methods for treating sleep disorders, sleep disturbances, and related symptoms using aminosterol compositions” (Enterin, Inc., priority 2017, dated 2021)",
  "key": {"[1]": {"tested_on": "single IPAN of the myenteric plexus", "experiment": "IPAN electrophysiology, jejunum with luminal epithelium stripped", "set-up": "species or system mouse", "conditions": "squalamine applied directly onto the myenteric plexus", "procedure": "Intrinsic primary afferent neurons (IPANs) are believed to be normally stimulated indirectly, through release of neurotransmitters from the epithelium. Since squalamine can be readily transported across an intact intestinal epithelial layer, and can enter a neuron, altering the surface potential of its plasma membrane, an experiment was designed to determine whether the effects of squalamine on the IPAN required the presence of the luminal epithelium.\nJejunum was prepared as described in the previous experiment, except the luminal epithelium was manually stripped off the organ using forceps. Squalamine was applied directly onto the myenteric plexus from the luminal surface. Electrophysiological studies were repeated to monitor the activity of a single IPAN within the area of the release of compound. Within 5 seconds the IPAN began a series of spontaneous discharges (FIG. 13A). […] Squalamine appears to be capable of communicating directly with the ENS, in contrast to most substances that communicate with the ENS only indirectly, via their effects on the epithelium."}, "[2]": {"tested_on": "elderly patient with a sleep disorder", "experiment": "Example 1: person with sleep disturbance, oral squalamine (Kenterin), sleep diary and I-button wrist temperature", "type": "in vivo, human", "conditions": "for % Change in Hours: 125 qod", "procedure": "An elderly patient with a sleep disorder was treated with squalamine to determine the efficacy of the drug for treating sleep disturbances. The patient was a person with a 10 year history of sleep disturbance and a history of constipation, anxiety, and anosmia for as long as they could remember. Their sleep was profoundly disturbed: they had difficulty falling asleep, awoke 3-4 times during the night, had vivid dreams and nightmares, spoke and screamed out loud during their sleep (REM-behavior disorder, RBD), often saw “apparitions” or people in the room (e.g., a cook in a top hat, priests and angels dressed in white). They slept with a night light on in an attempt to minimize these occurrences.\nThe patient was treated with oral squalamine (Kenterin™) starting at 100 mg qd and increasing to 200 mg qd. Sleep was monitored indirectly with the use of a temperature sensor (I-button) mounted on a wristband. The sensor was programed to record skin temperature at the wrist every 15 minutes 24 hrs a day. Data were downloaded every few weeks.\nIn other words, as the dose is increased, the hours of sleep increase, and as the dose was decreased, the hours of sleep decreased. The effect was immediate. Shown in FIG. 2 is the hours of sleep resulting following the following dosing schedule for squalamine: (1) 100 mg q.d., (2) 150 mg q.d., (3) 200 mg q.d., (4) 125 mg every third day, (5) 100 mg every third day, and (6) 125 mg q.o.d.\nIn other words, the patient was falling asleep more easily. […] Thus, not only does squalamine decrease delay in sleep onset and increase total sleep time, but it also has an effect on RBD and hallucinations, both of which occur as a result of Circadian rhythm dysfunction."}, "[3]": {"tested_on": "Intrinsic primary afferent neurons (IPAN) of the jejunum", "experiment": "IPAN patch clamp, jejunum with intact luminal epithelium", "set-up": "species or system mouse", "conditions": "lumen perfused with 30 μM squalamine; 5.5 before", "procedure": "Squalamine evoked bursts of action potential lasting for 10 to 30 min after application of a brief (20 ms) 50 μL puff of squalamine onto the epithelium.\nTo determine the mechanism by which squalamine stimulated intestinal motility, electrophysiological studies were conducted on single neurons within the colon or jejunum of WT mice, using published methods. Intrinsic primary afferent neurons (IPAN) of the jejunum were patch clamped from the adventitial surface, while the lumen of the jejunum was perfused with either Krebs's buffer or buffer containing 30 μM squalamine. The IPANs are multipolar neurons that receive sensory information from the lumen and then communicate with other divisions within the ENS to influence peristalsis as well as direct information rostrally.\nIn this experiment IPAN excitability was measured by stimulating the neuron with a single standard pulse, and counting the number of subsequent spontaneous discharges."}, "[4]": {"conditions": "100 mg q3d, days 81-83, daily values and mean"}, "[5]": {"conditions": "100 mg q3d, days 81-83, daily values and mean, mean"}, "[6]": {"conditions": "150 mg q3d, days 105-111, daily values and mean"}, "[7]": {"conditions": "150 mg q3d, days 105-111, daily values and mean, mean"}, "[8]": {"conditions": "150 mg qod, days 100-104, daily values and mean"}, "[9]": {"conditions": "150 mg qod, days 100-104, daily values and mean, mean"}, "[10]": {"conditions": "days 53-55: 175/200 mg, daily values and Mean 200"}, "[11]": {"conditions": "days 53-55: 175/200 mg, daily values and Mean 200, mean"}},
  "note": "Where “and” joins values, the source holds several entries; their conditions need not be identical. Identical values can stand only once.",
  "data": [
    {"molecule": "CC(C)[C@@H](CC[C@@H](C)[C@H]1CC[C@H]2[C@@H]3[C@H](O)C[C@H]4C[C@@H](NCCCNCCCCN)CC[C@]4(C)[C@H]3CC[C@]12C)OS(=O)(=O)O", "note": "[squalamine]", "values": [
      {"measurement": "time to onset of spontaneous discharges of the IPAN", "setting": "[1]", "result": "≤ 5", "unit": "s"},
      {"measurement": "Delay", "setting": "[2]; [4]", "result": 30, "unit": "min"},
      {"measurement": "Fragments awake", "setting": "[2]; [4]", "result": "40 min and 30 min"},
      {"measurement": "Total hrs sleep", "setting": "[2]; [4]", "result": "6.75 h and 7 h"},
      {"measurement": "Fragments awake", "setting": "[2]; [5]", "result": 36, "unit": "min"},
      {"measurement": "Total hrs sleep", "setting": "[2]; [5]", "result": 6.8, "unit": "h"},
      {"measurement": "Delay", "setting": "[2]; 125 mg q3d, days 69-80, daily values and mean", "result": "20 min and 30 min"},
      {"measurement": "Delay", "setting": "[2]; 125 mg q3d, days 69-80, daily values and mean, mean", "result": 25, "unit": "min"},
      {"measurement": "Delay", "setting": "[2]; [6]", "result": "10 min and 15 min and 20 min"},
      {"measurement": "Total hrs sleep", "setting": "[2]; [6]", "result": "10 h and 9.50 h and 8.75 h and 9.75 h and 8 h"},
      {"measurement": "Delay", "setting": "[2]; [7]", "result": 14, "unit": "min"},
      {"measurement": "Total hrs sleep", "setting": "[2]; [7]", "result": 9.3, "unit": "h"},
      {"measurement": "Delay", "setting": "[2]; [8]", "result": "15 min and 20 min"},
      {"measurement": "Total hrs sleep", "setting": "[2]; [8]", "result": "9 h and 8.5 h and 7.75 h and 10 h and 9.5 h"},
      {"measurement": "Delay", "setting": "[2]; [9]", "result": 17, "unit": "min"},
      {"measurement": "Total hrs sleep", "setting": "[2]; [9]", "result": 8.95, "unit": "h"},
      {"measurement": "% Change in Hours (from base)", "setting": "[2]; 100 qd", "result": "+5.3%"},
      {"measurement": "Total hrs sleep", "setting": "[2]; 100 qd (mg), pre (0) 7.5", "result": 7.9, "unit": "h"},
      {"measurement": "Total hrs sleep", "setting": "[2]; 125 qod (mg)", "result": 8.7, "unit": "h"},
      {"measurement": "% Change in Hours", "setting": "[2]; from initial pre(0)", "result": "+16% from initial pre(0);"},
      {"measurement": "% Change in Hours", "setting": "[2]; from post (0)", "result": "+24.3% from post (0)"},
      {"measurement": "% Change in Hours (from base)", "setting": "[2]; 150 qd", "result": "+17.3%"},
      {"measurement": "Total hrs sleep", "setting": "[2]; 150 qd (mg)", "result": 8.8, "unit": "h"},
      {"measurement": "Total hrs sleep", "setting": "[2]; 200 qd (mg), baseline 7.5", "result": 9.1, "unit": "h"},
      {"measurement": "% Change in Hours (from base)", "setting": "[2]; Post (0)", "result": "−6.7", "unit": "%"},
      {"measurement": "Total hrs sleep", "setting": "[2]; Post (0), after discontinuation of squalamine", "result": 7.0, "unit": "h"},
      {"measurement": "Fragments awake", "setting": "[2]; after STOP, days 62-68, daily values and mean", "result": "30 min and 20 min"},
      {"measurement": "diurnal rhythm (I-button recording, FIG. 7)", "setting": "[2]; after an appropriate dose of squalamine", "result": "restored almost immediately"},
      {"measurement": "diurnal rhythmicity (I-button, periodogram)", "setting": "[2]; after intermittent treatment for several months", "result": "some diurnal rhythmicity was restored"},
      {"measurement": "circadian rhythm (I-button, periodogram)", "setting": "[2]; after the first week of treatment", "result": "still absent"},
      {"measurement": "Delay", "setting": "[2]; days 53-55: 175 mg (day 53), 200 mg (days 54-55), daily values and Mean 200", "result": 20, "unit": "min"},
      {"measurement": "Fragments awake", "setting": "[2]; [10]", "result": "15 min and 30 min"},
      {"measurement": "Total hrs sleep", "setting": "[2]; [10]", "result": "9.0 h and 9.25 h"},
      {"measurement": "Fragments awake", "setting": "[2]; [11]", "result": 20, "unit": "min"},
      {"measurement": "Total hrs sleep", "setting": "[2]; [11]", "result": 9.1, "unit": "h"},
      {"measurement": "Total hrs sleep", "setting": "[2]; off K, days 112-135, daily values and mean", "result": 4.5, "unit": "h"},
      {"measurement": "RBD (vivid dreams and nightmares) and frank visual hallucinations", "setting": "[2]; on treatment, reappeared when medication was discontinued", "result": "disappeared on treatment"},
      {"measurement": "number of discharges stimulated by a single electrical impulse (IPAN excitability)", "setting": "[3]", "result": 8.8}
    ]}
  ]
}
